Reference: patent US20120252796A1, “COMPOUNDS FOR THE TREATMENT OF DYSLIPIDEMIA AND RELATED DISEASES” (priority 2009, published 2012)

How the values were obtained:
PCSK9 [1] = target: T1, PCSK9 (Homo sapiens, UniProt Q8NBP7); assay: SPR binding studies (BIACORE3000); details: 25° C., phosphate buffer pH 7.4; compounds run at 10 nM, 100 nM and 1 micro mole, concentration of the value not stated
Description: Instrumentation: BIACORE3000 from GE Life Sciences was used and the Interaction analysis was performed at 25° C.
Buffers: phosphate buffer pH 7.4 supplied by Biacore supplemented with 0.01% dimethyl sulfoxide (DMSO) was used as running buffer during the assay.
Immobilization of Ligand: Sensor chip CM5 was used for analysis. The sensor chip consists of a carboxymethyl-modified dextran polymer linked to a gold-covered glass support. The ligand was diluted to 10 micro gram/ml in 10 mM sodium acetate, pH5.0 and immobilized to the sensor chip, using amine coupling. Running buffer without DMSO was used during immobilization. The surface was activated by injecting a solution containing 0.2M N-ethyl-N′-dimethyl aminopropyl-carbodiimide (EDC) and 50 mM N-hydroxy succinimide (NHS). The system was set for Aim for immobilization of about 1000 RU and the surface was blocked by injecting 1 Mehanolamine at pH 8.5. Then the surface was washed with 50 mM NaOH by injecting two 30 second-pulses to remove off non covalently bound ligand and to stabilize the baseline (automated procedure). Activated dextran was used as a reference surface. To ensure highest sensitivity the SPR Detector response was normalized before running the assay. By calibrating the detector at various light intensities under Conditions of total internal reflection (automated procedure). Solvent correction for DMSO was also carried to minimize the error in data.
Assay Design: A binding assay was set up for different compounds at three different concentrations (10 nM, 100 nM and 1 micro mole), and were injected over the reference and Ligand flow cells at a flow rate of 30 micro liter/min. Each cycle consisted of a 1-min waiting period for monitoring of the baseline stability and 3 minute injection of compound with a 5 minute Undisturbed dissociation phase, and the surface was regenerated with 50 mM NaoH solution. Compound responses in the reference flow cell were subtracted with that of ligand and a solvent correction run was carried in between and the binding potential of the compounds was reported as relative response units (RU).
Target sequence in this assay (Q8NBP7 153-692): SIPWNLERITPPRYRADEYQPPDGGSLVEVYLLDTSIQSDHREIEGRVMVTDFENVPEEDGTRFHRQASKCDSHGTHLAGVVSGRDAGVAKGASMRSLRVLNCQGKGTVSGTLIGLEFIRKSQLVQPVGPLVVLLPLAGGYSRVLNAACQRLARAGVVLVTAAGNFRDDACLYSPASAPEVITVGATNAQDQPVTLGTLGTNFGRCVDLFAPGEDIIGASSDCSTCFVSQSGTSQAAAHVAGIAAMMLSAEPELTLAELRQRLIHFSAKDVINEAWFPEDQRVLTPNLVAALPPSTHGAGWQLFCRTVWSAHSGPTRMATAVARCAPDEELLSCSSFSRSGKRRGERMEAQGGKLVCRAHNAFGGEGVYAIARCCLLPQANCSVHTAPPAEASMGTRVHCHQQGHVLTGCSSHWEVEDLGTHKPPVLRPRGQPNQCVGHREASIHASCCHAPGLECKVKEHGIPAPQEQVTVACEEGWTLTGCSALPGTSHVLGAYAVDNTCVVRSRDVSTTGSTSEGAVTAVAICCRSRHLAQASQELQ

[2] = system: HF-HC diet fed Syrian golden hamsters; assay: Lipid lowering effect in HF-HC diet fed hamster model; type: in vivo; parameters: concentration or dose not given beside the values; details: oral gavage once daily, day 14
Excerpt: In this experiment, Syrian golden hamsters which were kept on high fat—high cholesterol (HF-HC) fructose diet for 2 weeks were divided into various groups based on LDL-C and Total cholesterol levels. The treatment was given by oral gavages once daily for 14 days. The blood was collected by retro-orbital sinus puncture method under light ether anesthesia on day 0 (pretreatment), and day 14 of the treatment for lipid levels measurements. The percent change in LDL-C in compound group Vs Vehicle group was calculated.

PCSK9 [3] = target: T1, PCSK9; assay: PCSK9-LDLR in vitro Binding Assay (ELISA)
Method in brief: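 Solid-phase ELISA: PCSK9 premixed with compound at varying concentrations added to immobilized recombinant LDLR-AB domain. Bound PCSK9 detected via biotinylated anti-His mAb and HRP-streptavidin, absorbance at 450 nm; EC50 by nonlinear regression from duplicate points.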
Target sequence in this assay (Q8NBP7 153-692): as above
Target sequence in this assay (Q8NBP7 31-152 partner limits assumed): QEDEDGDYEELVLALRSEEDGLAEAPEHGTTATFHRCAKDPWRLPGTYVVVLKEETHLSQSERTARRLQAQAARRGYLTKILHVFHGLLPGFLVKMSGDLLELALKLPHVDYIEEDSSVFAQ

[4] = system: LPS induced dyslipidemia model C57 mice; assay: LDL-C lowering activity in LPS induced dyslipidemia model C57 mice; type: in vivo; details: male C57 mice, i.p. or oral, 24 hours after LPS, vs Vehicle group
Description: Male C57 mice of 7-10 week age are grouped based on non-fasting LDL-C levels, on next day these mice were administered with Vehicle or test compounds (i.p. or oral) and 30 min after compound administration lipolysaccharide (LPS) was administered. After LPS administration all animals were kept on fasting for 24 hours, after that animals were bled and LDL-C was measured. The percent change in LDL-C in test compound group Vs Vehicle group was calculated.

high fat diet C57 mice = assay: LDL-C lowering activity in high fat diet C57 mice; type: in vivo; details: C57 mice on high fat diet, orally once a day, 4-6 week treatment
Description: The in-vivo LDL-c lowering for test compound was tested in C57 mice which were kept on high fat diet for 4 weeks and the blood was collected by retro-orbital sinus puncture method under light ether anesthesia on day 0 (pretreatment), animal are grouped based on LDL-C levels, after that 4-6 week treatment with vehicle or test compound orally once a day was given. On completion of treatment on day 28 day and or on day 42 of the treatment the blood was collected for LDL-C levels measurement. The percent change in LDL-C in test compound group Vs Vehicle group was calculated.

Cc1oc(-c2ccccc2)nc1CC1COC(C)(C(=O)NO)OC1 (single isomer, unassigned) [Example 4, N-(Hydroxy)-2-methyl-5-((5-methyl-2-phenyloxazol-4-yl)methyl)-1,3-dioxane-2-carboxamide]
Relative response (RU) (PCSK9 [1]): 5.13 RU
% Change Vs Vehicle Control HDL-C [2]: −25%
% Change Vs Vehicle Control LDL-C [2]: −24%
% Change Vs Vehicle Control TC [2]: −27%
% Change Vs Vehicle Control TG [2]: −35%
inhibition at 10 µM (PCSK9 [3]; Concentration 10 μM): 35%
inhibition at 100 µM (PCSK9 [3]; Concentration 100 μM): 42%
% Change in LDL-C [4]: −29.4 ± 4.1%
% Change Vs Vehicle Control HDL-C (high fat diet C57 mice): −5%
% Change Vs Vehicle Control LDL-C (high fat diet C57 mice): −24%
% Change Vs Vehicle Control TC (high fat diet C57 mice): −14%
% Change Vs Vehicle Control TG (high fat diet C57 mice): −35%
